Results as given in US11096985B2, “Antimicrobial peptides, their variants and uses” (priority 2015, dated 2021).
≈ marks a conversion by molar mass, not a printed value. Entries after “also recorded” stand apart in the source; their conditions may differ. Where a SMILES comes first, the peptide text is derived from it.

Columns and labels:
[1] = system: Klebsiella pneumoniae (ATCC 10031); format: cell-based; settings: ATCC 10031
Description: (§1) Minimum inhibition concentrations (MICs) were determined against Escherichia coli (ATCC 25922), Staphylococcus aureus (ATCC 25923), Klebsiella pneumoniae (ATCC 10031) and Pseudomonas aeruginosa (ATCC 27853). Also clinical strains of E. coli, K. pneumoniae, E. cloacae, P. aeruginosa, Serratia marcescens, Proteus mirabilis, S. pneumoniae, Acinetobacter baumannii, A. johnsonii and S. aureus were used for MICs assays. Additionally, clinical strains of yeast including Candida albicans, C. glabrata, C. parapsilosis and C. quillermondiae were used. The susceptibility of these microorganisms to Chain peptides were determined using micro broth dilution assay. Colonies of the respective microorganism from Muller Hinton (MH) agar plates incubated overnight were suspended in MH broth media and final concentration of microorganism was adjusted to 5.0×10^5 cfu/ml. An aliquot of 10 μl of each Chain peptide, or gentamicin, tetracycline as reference antibiotics were added in differing concentrations along with 90 μl of bacterial suspension to 96 well polypropylene plates and incubated at 37° C. for 20 to 24 hours. Concentrations of Chain peptides and reference antibiotics ranged from 0.125 to 128 μg/ml and the MICs were recorded as the lowest concentration with no visual growth of bacteria. Similarly, antifungal MICs were tested in Potato dextrose broth.

[2] = system: Staphylococcus aureus (ATCC 25923); format: cell-based; settings: ATCC 25923
Description: as §1

[3] = system: Pseudomonas aeruginosa (ATCC 27853); format: cell-based; settings: ATCC 27853
Description: as §1

[4] = system: Escherichia coli (ATCC 25922); format: cell-based; settings: ATCC 25922
Description: as §1

[5] = pH 4-9, RDA
Description: (§4) Thermal stability was evaluated by diluting peptides to the concentration of 2 mg/ml in PBS buffer (pH 7.4) and incubating at different temperatures, such as +4° C., 25° C. (RT), 37° C. and 45° C., peptides stored at −20° C. were used as control. […] Peptides were also tested by diluting them at different pH values starting from pH 4 to 9. The effect of NaCl on the antimicrobial activity was tested by adding different concentrations (50, 100 and 200 mM) of NaCl to MH medium and the minimum inhibitory concentrations were tested against 4 ATCC bacterial strains.

[6] = system: Penicillium chrysogenum (DSM 1075); assay: Radial diffusion assay, antifungal, P. chrysogenum; format: cell-based; settings: 20 μg
Description: (§2) The radial diffusion assay (RDA) was carried out as described by Andersen et al. (2010). Briefly, 30 ml of 1/10 Muller-Hinton broth (MHB) supplemented with 1% agarose and 5.0×10^5 CFU/ml S. aureus or E. coli or K. pneumoniae, P. aeruginosa cells was poured into a single-well omnitray (Nunc) and overlaid with a TSP 96-well plate. One hundred μg of each synthesized peptide was tested. The peptides were also tested against Fusarium oxysporum and Verticillium dahliae, for which 1/3 potato dextrose agarose was used. To test the synergistic effect of peptides, each peptide was mixed in equimolar concentrations. Mix1 (met1-12), Mix2 (met3, 4 and 5), Mix3 (met 8, 9 and 10), Mix 4 (met11, 12) and Mix5 (8, 9, 10, 11, 12) were prepared and tested against E. coli and S. aureus. Gentamicin and vancomycin were included as positive controls for bacteria and amphotericin B was used as the control for fungi.
(§3) By using rational design techniques, we have designed variants of peptides by incorporating or replacing various amino acids in the original peptides. Thus, we have designed and modified Chain 100, Chain 200 and Chain 300 with tryptophan (W), arginine (R) and lysine (K) at various positions to improve antimicrobial activity (FIGS. 4a-c and 5a-c). In some peptides we have also used other amino acids such as Leucine (L), Cysteine (C), Isoleucine (I), Phenylalanine (F) and Alanine (A). For synthesis, 32 variants and 3 original peptides were selected based on the various parameters such as positive charge, aliphatic index and instability index. Peptides variants were tested by using radial diffusion assay against Escherichia coli (ATCC 25922), Staphylococcus aureus (ATCC 25923), Klebsiella pneumoniae (ATCC 10031) and Pseudomonas aeruginosa (ATCC 27853) (FIGS. 6a-c). The zone of inhibition ranged between 10-18 mm for Escherichia coli and Staphylococcus aureus, 6-18 mm & 8-18 mm for Pseudomonas aeruginosa and Klebsiella pneumonia respectively (Table 2). For Gentamicin it was between 22-24 mm. Antifungal activity was tested for promising antibacterial peptides (Chains 104, 105, 109, 201, 204, 306, 307, 308, 310) against Aspergillus flavus (DSM 1959) and Penicillium chrysogenum (DSM 1075). All these peptides has activity at a concentration of 20 μg, Amphotericin B was used as a positive control at 20 μg (FIG. 7).

[7] = +4, 25, 37 and 45° C., 14 days, PBS pH 7.4, RDA with 20 μg
Description: as §4

4 ATCC bacterial strains = assay: Effect of NaCl on MIC; format: cell-based; settings: 200 mM NaCl in MH medium
Description: as §4

[8] = system: gram positive and negative bacteria; assay: MIC by micro broth dilution, summary over the strains tested; format: cell-based
Description: as §1

[9] = system: Aspergillus flavus (DSM 1959); assay: Radial diffusion assay, antifungal, A. flavus; format: cell-based; settings: 20 μg
Description: as §2, §3

human erythrocytes = format: cell-based
Description: In hemolysis assays, the ability of peptides at 128 μg/ml concentration to lyse human erythrocytes to release hemoglobin was measured. The peptides described here preferably have low hemolytic activity (0.2 to 3.8% hemolysis) in mammal body. […] These peptides are useful as antimicrobial drugs as they show little or no side effects at concentrations needed to kill bacteria.
Minimum inhibition concentrations (MICs) were tested by microbroth dilution method and Chain 104, 105 and 109 inhibited the growth of Escherichia coli (ATCC 25922), Staphylococcus aureus (ATCC 25923), Klebsiella pneumoniae (ATCC 10031) and Pseudomonas aeruginosa (ATCC 27853) between 1-8 μg/ml respectively (Tables 3a, 3b and 3c). The membranolytic activities of the peptides were tested by measuring the release of hemoglobin from erythrocytes of fresh blood donated by voluntiers. Hemoglobin levels were determined spectrometrically by taking OD at 540 nm by following the protocol of Schmidtchen et al., 2011.

S. aureus COL (MRSA) = assay: Synergistic activity with Ertapenem (4 μg/ml) against MRSA, MIC; format: cell-based, Staphylococcus aureus; settings: Ertapenem 4 μg/ml; L-form
Description: as §1
Peptides Chain 104, Chain 105, Chain 201, Chain 308, Chain 310 were tested against antibiotic-sensitive strains of S. aureus RN4220 and methicillin resistant strains of S. aureus COL (MRSA). Chain peptides comprising of either L- or D-form amino acids were tested against these bacteria, and the D-form peptides were found have better activity compared to L-form (Table 6). Synergistic activity of chain peptides along with Ertapenem (4 μg/ml) was tested to know whether it will influence the activity against MRSA strains. […] Chain 310 has the best antibacterial activity against the MRSA strains with a MIC of 0.06 & 0.03 μg/ml along with Ertapenem (4 μg/ml) for both forms of L and D-peptides (Table 6).

S. aureus = assay: Antibacterial activity analysis of En-MAP1 protein; format: cell-based, Staphylococcus aureus
Description: Both folded and unfolded proteins were tested for antibacterial activity against S. aureus by pipetting 10 μg of protein on the S. aureus culture on an LB plate. The activity was also tested in folded and unfolded protein digested with trypsin in 0.01% acetic acid at concentrations of 30 and 60 μg/ml.

CC[C@H](C)[C@H](NC(=O)[C@H](CCCCN)NC(=O)[C@H](CCCNC(=N)N)NC(=O)[C@H](Cc1c[nH]c2ccccc12)NC(=O)[C@H](CCCNC(=N)N)NC(=O)[C@@H](NC(=O)[C@@H](NC(=O)[C@H](CCCNC(=N)N)NC(=O)[C@@H](N)Cc1c[nH]c2ccccc12)[C@@H](C)CC)C(C)C)C(=O)N[C@@H](CCCCN)C(=O)N[C@@H](CCCNC(=N)N)C(=O)O [Chain209] (H-WRIVRWRKIKR-OH; N-terminus and C-terminus assumed)
Minimum inhibitory concentration, Klebsiella pneumoniae (ATCC 10031) [1]: >128 µg/mL | Minimum inhibitory concentration, Staphylococcus aureus (ATCC 25923) [2]: >128 µg/mL | Minimum inhibitory concentration, Pseudomonas aeruginosa (ATCC 27853) [3]: >128 µg/mL | Minimum inhibitory concentration, Escherichia coli (ATCC 25922) [4]: 64 µg/mL (≈ 40.1 µM)

CC(C)C[C@H](NC(=O)[C@H](CCCNC(=N)N)NC(=O)[C@H](Cc1c[nH]c2ccccc12)NC(=O)[C@H](CCCNC(=N)N)NC(=O)[C@H](CCCCN)NC(=O)[C@H](CC(C)C)NC(=O)[C@@H](N)CCCNC(=N)N)C(=O)N[C@@H](Cc1ccccc1)C(=O)N[C@@H](CCCNC(=N)N)C(=O)N[C@@H](CCCCN)C(=O)N[C@@H](CCCNC(=N)N)C(=O)O [Chain306] (H-RLKRWRLFRKR-OH; N-terminus and C-terminus assumed)
pH stability (zone of inhibition) [5]: not hindered by pH | antifungal activity against Penicillium chrysogenum [6]: has activity; also recorded: particularly active | thermostability (antibacterial activity kept after incubation) [7]: not hindered by pH or temperature even upto 45 °C for over 14 days | increase in MIC values with NaCl (4 ATCC bacterial strains): 2 fold | activity against the four ATCC strains [8]: very active | antifungal activity against Aspergillus flavus [9]: has activity; also recorded: particularly active

CC(C)C[C@H](NC(=O)[C@H](Cc1c[nH]c2ccccc12)NC(=O)[C@H](Cc1ccccc1)NC(=O)[C@H](Cc1c[nH]c2ccccc12)NC(=O)[C@H](CCCCN)NC(=O)[C@H](CC(C)C)NC(=O)[C@@H](N)CCCNC(=N)N)C(=O)N[C@@H](Cc1ccccc1)C(=O)N[C@@H](CCCNC(=N)N)C(=O)N[C@@H](CCCCN)C(=O)N[C@@H](CCCNC(=N)N)C(=O)O [Chain307] (H-RLKWFWLFRKR-OH; N-terminus and C-terminus assumed)
side effects to humans as tested by hemolysis assay (human erythrocytes): little side effects | antifungal activity against Penicillium chrysogenum [6]: has activity; also recorded: particularly active | activity against the four ATCC strains [8]: very active | antifungal activity against Aspergillus flavus [9]: has activity; also recorded: particularly active

CC(C)C[C@H](NC(=O)[C@H](CCCCN)NC(=O)[C@H](CCCCN)NC(=O)[C@H](Cc1ccccc1)NC(=O)[C@H](CC(C)C)NC(=O)[C@H](Cc1c[nH]c2ccccc12)NC(=O)[C@H](CCCNC(=N)N)NC(=O)[C@H](Cc1c[nH]c2ccccc12)NC(=O)[C@H](CCCCN)NC(=O)[C@H](CCCNC(=N)N)NC(=O)[C@@H](N)CCCCN)C(=O)O [Chain310] (H-KRKWRWLFKKL-OH; N-terminus and C-terminus assumed)
side effects to humans as tested by hemolysis assay (human erythrocytes): little side effects | antifungal activity against Penicillium chrysogenum [6]: has activity; also recorded: particularly active | activity against the four ATCC strains [8]: very active | antifungal activity against Aspergillus flavus [9]: has activity; also recorded: particularly active | MIC against MRSA strains along with Ertapenem, L-peptide (S. aureus COL (MRSA)): 0.06 µg/mL

B1: En-MAP1: protein of 549 amino acids from an endophyte of Empetrum nigrum, GenBank KC466596 (protein, listed as Empetrum nigrum)
chain: MRLVAHPVPDAPLYALMIKACSMGIPQPNDNLWKPRNPLLAKEEKTSKRGRTAPDTERALDLFREMTLRYNIRPTAEVYTAIIAACVKRDDMYDKGFGLFKKMVELERNRMSSEGHDSTSFAPTRATYNALLRGCARNKDLLRARWILAEMLRTAQAKWQEFMEKSKKGEEGVQEWELLEVEEMRPDTNTMAFLFYTYASHTTSSKAVPETEGKKELEGKAEERASEVTSVSPVSEPPEPMDESKLVYSLPTSSQAILREVTSLLDRIKSDQGQQSNLLSSVQINSKLLNSYIAVLSAHCRSSQVVERISEVVVGTKENPKSLFEETGTSVNGYTCFTVIDACGMMEHSPDTYHLACEMWQRWLSLVENATFHRENPLKAKEIGLDSRTISDCWSAMIRLHAKYNQVDEAMKLVHEFARLYPPASLFNSLTFEPSSTSSSSLSPRKGVQEISPLFSSTSLTHSIRGRDISRIQNTMSQDPTLQFRAVQILHLRLVELETRPKDLAYLSWLLKSYEHQLQPKRPKSLQGDLFTSRQAAYNRIVQQRTSSR
antibacterial activity against S. aureus, trypsin digest of folded protein (S. aureus; folded full protein digested with trypsin): antibacterial activity was observed for up to two hours after digestion | antibacterial activity against S. aureus (S. aureus; folded protein or expressed fragments): no activity was observed | antibacterial activity against S. aureus, trypsin digest of unfolded protein (S. aureus; unfolded protein digested with trypsin): No activity was detected
